pEC50, pIC50: −log10 of the molar value. Entries after “also recorded” stand apart in the source; their conditions may differ. Where two headings read alike, the source gives them in different places. One block for each compound: values may come before it. The star is where a group is joined. Myristoyl = CCCCCCCCCCCCCC(=O)*
Assays:
human β2-AR [1] = target: T1, human β2-AR (Homo sapiens, UniProt P07550); test: Calcium response (Fluo-4) in Flp-In-293 cells stably transfected with ADRB2 and GNA15; format: cell-based; settings: for Activation of the β2-AR by sugars (calcium response): sugars at 50 mM, listed in order of decreasing intensity; for IC50: concentration response curve
Caco-2 cells = test: Caco-2 permeability assay; format: in vitro ADME, human
Source text: (§1) Caco-2 cell permeability data of compound CD3-403 (apical to basal (A-B) and basal to apical (B-A), measured at pH 7.4 in both apical and basal compartment)

[2] = Caco-2 permeability assay; format: in vitro ADME, human; settings: human; for recovery at 1 μM: Caco-2, pH 7.4, Caco-2, 1.0 μM; for Papp A→B / Papp B→A: Caco-2, pH 7.4; for Papp at 1 μM: summary, read-out: Permeability in Caco2 assay
Source text: as §1

[3] = In vivo oral glucose tolerance test; set-up: species or system rat; settings: rats
Procedure: Animals and diet. All the experiments were approved by the ethical committee on animal experimentation of the KU Leuven. Wistar rats (Harlan Netherlands B.V.) were maintained on a 12 h light-12 h dark cycle, and fed with standard rat food chow and water ad libitum. The oral glucose tolerance test was performed on normal rats weighing around 250 g, which were fasted for 16 h before the test. Blood was sampled by tail vein puncture, and the blood glucose level was measured by glucometer (Verio OneTouch glucometer). Rats were divided in four groups: one with glucose 2 g/kg or glucose 4 g/kg (Sigma Aldrich), both in the presence or absence of CD3-403. […] Glucose or glucose along with CD3-403, dissolved in 0.9% saline, was administered to rats by oral gavage in the respective groups. […] All experiments were conducted around the same time in the morning.

[4] = system: everted sacs prepared from rat intestine; test: Glucose uptake into everted sacs of rat intestine; settings: for Effect on basal glucose transport: ICI 118,551 10 μM with 2.5 mM glucose; for Effect on basal glucose transport / Effect on epinephrine stimulation of glucose uptake: colchicine 5 μM; for Effect on epinephrine stimulation of glucose uptake: epinephrine 10 μM, mPKI 1 μM; for Effect on epinephrine stimulation of glucose uptake / Inhibition of the stimulation of glucose transport by mannose: ICI 118,551 10 μM; for Inhibition of the stimulation of glucose transport by mannose: LX4211 2 μM (also inhibits glucose transport itself)
Procedure: Rats weighing around 150 g were fasted overnight before the experiment, and euthanized by cervical dislocation on the day of the experiment. The abdomen was opened by a midline incision, and a segment of around 35 cm of proximal intestine was isolated. The intestinal segment was rinsed with ice-cold Ringer solution (composition (mM): 140 NaCl, 5 KCl, 1 MgCl2, 2 CaCl2, 10 HEPES, 10 TRIS, gassed with 95% O2 and 5% CO2, pH 7.4), and 4-7 everted sacs were prepared, each approximately 3 cm in length, by tying off the ends of the intestinal segments with threads (46). The sacs were filled with Ringer solution containing 5 mM mannitol (Sigma Aldrich) (to maintain osmotic balance) and L-glutamine (2 mM) (Sigma Aldrich) (as an energy source). Each everted sac was transferred to a separate glass beaker containing 50 mL continuously oxygenated Ringer solution with L-glutamine (2 mM), and maintained in a water bath at 37° C. Then, epinephrine 10 μM (Sigma Aldrich), mannose 5 mM (Sigma Aldrich), ICI 118,551 10 μM (Sigma Aldrich), phlorizin 100 μM (Sigma Aldrich), LX4211 2 μM (MedKoo Biosciences, Inc. USA.) or Ringer solution were added to the respective beaker for a 15-min pre-incubation (concentrations indicate final concentrations of the compounds). For the sacs treated with ICI 118,551, phlorizin or LX 4211, the inhibitors were added before mannose or epinephrine. After pre-incubation, 5 mM glucose, or 2.5 mM glucose for the ICI 118,551 control experiment, was added to the external buffer to initiate glucose transport. […] These samples were analyzed using a glucose assay kit based on glucose oxidase (Sigma Aldrich, for details, see below). […] Also for colchicine, a TRIS-free Ringer solution was used, as TRIS interferes with colchicine activity (130). […] We noticed that it was important to take certain precautions during these experiments: the intestine was never allowed to overfill and be stretched while rinsing the intestinal lumen at the time of isolation and filling the everted sac with Ringer solution. Trapping air bubbles inside the everted sac was avoided. Also, the regions of the intestine where mucus was still present were not used for preparing everted sacs. […] The glucose concentration of the samples was assayed by a glucose assay kit (Sigma Aldrich, GOD/POD method). The assay procedure recommended by the kit was modified for small sample volumes as follows. Fifty μL of sample was transferred to a well of a 96-well plate, and at time zero, the reaction was started by adding 100 μL of assay reagent to the first well, and mixing. Each well was allowed to react for exactly 30 min at 37° C. The reaction was stopped by adding 100 μL of 12 N H2SO4 (Merck) into each well, and carefully mixing. The absorbance was measured at 540 nm with a plate reader (Tecan 200).

human β2-AR [5] = target: T1, human β2-AR; test: Competitive radioligand binding assay with 125I-cyanopindolol on membrane vesicles; set-up: purchased PerkinElmer RBHBE2M; settings: maximal increase with increasing concentrations
[6] = system: HEK-293 cells (endogenous β2-AR); settings: 1 μM epinephrine
human β2-AR [7] = target: T1, human β2-AR; settings: Xenopus oocytes, CFTR readout
[8] = summary of screening, read-out: IC50
[9] = second CD3 compounds overview table, epinephrine 5 nM, read-out: IC50
[10] = Caco-2, 1.0 μM, pH 7.4 in both compartments
[11] = 1st experiment, read-out: IC50 (nM) 1st experiment
[12] = 2nd experiment, read-out: IC50 (nM) 2nd experiment
[13] = Caco-2, test concentration 1.0E−06 M
[14] = Rattus norvegicus, 1.25 h, phlorizin 100 μM, LX4211 2 μM, glucose accumulated after 75 min

Compound: COc1ccc(OC)c(C(O)C(C)NC(C)(C)C)c1 (stereo not drawn) [Butoxamine, reference compound]
pIC50 (human β2-AR [1]; [9]): 4.84

Compound: CC(C)(C)NC[C@@H](O)COc1cccc2[nH]cc(CC(N)=O)c12 [CD3-403]
Cell permeability (Caco-2 cells; assessed by a Caco-2 permeability assay): very low cell permeability | Efflux (Caco-2 cells; test concentration 1.0E−06 M): 3.25 | MeanRecovery (A-B) (Caco-2 cells; test concentration 1.0E−06 M): 83% | MeanRecovery (B-A) (Caco-2 cells; test concentration 1.0E−06 M): 94% | recovery at 1 μM ([2]; pH 7.4 in both compartments, read-out: Mean Recovery (A-B)): 83% | recovery at 1 μM ([2]; pH 7.4 in both compartments, read-out: Mean Recovery (B-A)): 94% | Papp A→B ([2]; test concentration 1.0E−06 M): 0.4 ×10⁻⁶ cm/s | Papp B→A ([2]; test concentration 1.0E−06 M): 1.3 ×10⁻⁶ cm/s | Papp at 1 μM ([2]; Caco-2): 0.4 ×10⁻⁶ cm/s | efflux ratio at 1 µM ([2]; Caco-2, 1.0 μM, B-A/A-B): 3.25 | Papp A→B at 1 μM [2, 10]: 0.4 ×10⁻⁶ cm/s | Papp B→A at 1 μM [2, 10]: 1.3 ×10⁻⁶ cm/s | Area under the curve (AUC) of the glucose increase ([3]; glucose 2 g/kg, 100% as baseline, mean±SD, control 8056±2990): 5907±2195 | Increase in blood glucose level after oral glucose bolus ([3]; oral gavage, glucose 2 g/kg, 5 μM (0.05 mg/kg) CD3-403): reduced increase in blood glucose level, which was significant at 60 min | Blood glucose concentration after oral glucose bolus ([3]; oral gavage, glucose 4 g/kg, 5 μM (0.05 mg/kg) CD3-403): trend of decreased glucose concentration | pIC50 (human β2-AR [1]; 5 nM epinephrine, read-out: IC50 of the calcium response elicited by 5 nM epinephrine): 7.34 | IC50 (human β2-AR [1]; [11]): 221 nM | IC50 (human β2-AR [1]; [12]): 46 nM | IC50 (human β2-AR [1]; old stock, read-out: IC50 (nM) old stock): 40 nM | % INHIBITION (human β2-AR [1]; second CD3 compounds overview table, epinephrine 5 nM): 97% | pIC50 (human β2-AR [1]; [9]): 7.40 | pIC50 (human β2-AR [1]; [8]): 7.34

Compound: COc1cc2c(c(OC)c1OC)-c1ccc(OC)c(=O)cc1[C@@H](NC(C)=O)CC2 [Colchicine]
Effect on basal glucose transport [4]: not basal glucose uptake | Effect on epinephrine stimulation of glucose uptake ([4]; phlorizin 100 μM): completely blocked

Compound: N[C@H]1C(O)O[C@H](CO)[C@@H](O)[C@@H]1O (stereo partly drawn) [Glucosamine]
Activation of the β2-AR by sugars (calcium response) (human β2-AR [1]): very little effect

Compound: Cc1ccc(OCC(O)C(C)NC(C)C)c2c1CCC2 (stereo not drawn) [ICI 118,551]
Effect on basal glucose transport [4]: did not have any effect | Inhibition of the stimulation of glucose transport by mannose [4]: abolished | Effect on epinephrine stimulation of glucose uptake ([4]; phlorizin 100 μM): completely prevented

Compound: CCOc1ccc(Cc2cc([C@@H]3O[C@H](SC)[C@@H](O)[C@H](O)[C@H]3O)ccc2Cl)cc1 [LX4211]
Inhibition of the stimulation of glucose transport by mannose [4]: completely inhibited | inhibition at 2 µM [4, 14]: > 90%

Compound: [Cl-].[Na+] [NaCl]
Increase of 125I-cyanopindolol binding (human β2-AR [5]): roughly 35%

Compound: CNC[C@H](O)c1ccc(O)c(O)c1 [epinephrine]
Glucose accumulated after 10 min in the sac ([4]; epinephrine 10 μM in external medium, 5 mM glucose, without epinephrine 440±132): 833 ± 255 µM | Calcium response in non-transfected HEK-293 cells [6]: failed to show a calcium response | Calcium response in non-transfected HEK-293 cells ([6]; listed as Epinephrine): did not elicit a calcium response | Activation of the β2-AR (inward current and conductance) (human β2-AR [7]): activated

Compound: O=C(CCc1ccc(O)cc1)c1c(O)cc(O)cc1O[C@@H]1O[C@H](CO)[C@@H](O)[C@H](O)[C@H]1O [phlorizin]
inhibition at 100 µM [4, 14]: > 90% | Effect on epinephrine stimulation of glucose uptake ([4]; phlorizin 100 μM): inhibited both basal and enhanced glucose uptake

Compound: O=C[C@H](O)[C@@H](O)[C@H](O)CO [xylose]
Activation of the β2-AR by sugars (calcium response) (human β2-AR [1]): activated

Compound: Myristoylated PKI 14-22 amide (Myristoyl-GRTGRRNAI-NH2; SMILES CCCCCCCCCCCCCC(=O)NCC(=O)N[C@@H](CCCNC(=N)N)C(=O)N[C@H](C(=O)NCC(=O)N[C@@H](CCCNC(=N)N)C(=O)N[C@@H](CCCNC(=N)N)C(=O)N[C@@H](CC(N)=O)C(=O)N[C@@H](C)C(=O)N[C@H](C(N)=O)[C@@H](C)CC)[C@@H](C)O; UniProt P61925 15-23, looked up, fragment)
Effect on epinephrine stimulation of glucose uptake ([4]; phlorizin 100 μM): partially inhibited

Compound: maltotriose
pEC50 (human β2-AR [1]; calcium response (FIG. 2d)): ~2.00 | Activation of the β2-AR by sugars (calcium response) (human β2-AR [1]): activated

The next lines start with the values.

Activation of the β2-AR by sugars (calcium response) (human β2-AR [1]): activated
Compound: OC[C@H]1O[C@H](O[C@H]2[C@H](O)[C@@H](O)C(O)O[C@@H]2CO)[C@H](O)[C@@H](O)[C@@H]1O (mixture of isomers) [maltose]

Permeability class in Caco2 assay (Caco-2 cells; summary): low permeability | pIC50 (human β2-AR [1]; [8]): 7.15
Compound: CC(C)(C)NCC(O)COc1cccc2[nH]cc(CC(=O)NN)c12 (racemic) [CD3 X]

Activation of the β2-AR by sugars (calcium response) (human β2-AR [1]): activated
Compound: O=CC[C@@H](O)[C@H](O)[C@H](O)CO [2 deoxy-D-glucose]

MeanRecovery (A-B) (Caco-2 cells; test concentration 1.0E−06 M): 71% | MeanRecovery (B-A) (Caco-2 cells; test concentration 1.0E−06 M): 87% | Papp A→B ([2]; test concentration 1.0E−06 M): 54.7 ×10⁻⁶ cm/s | Papp B→A ([2]; test concentration 1.0E−06 M): 17.8 ×10⁻⁶ cm/s | Papp at 1 μM ([2]; Caco-2): 54.7 ×10⁻⁶ cm/s | efflux ratio at 1 µM [2, 13]: 0.325 | IC50 (human β2-AR [1]; [11]): 6 nM | IC50 (human β2-AR [1]; [12]): 0.6 nM | pIC50 (human β2-AR [1]; [8]): 8.22
Compound: Cc1c[nH]c2cccc(OC[C@H](O)CNC(C)(C)C)c12 [CD3-T1]

MeanRecovery (A-B) (Caco-2 cells; test concentration 1.0E−06 M): 76% | MeanRecovery (B-A) (Caco-2 cells; test concentration 1.0E−06 M): 90% | Papp A→B ([2]; test concentration 1.0E−06 M): 0.1 ×10⁻⁶ cm/s | Papp B→A ([2]; test concentration 1.0E−06 M): 3.2 ×10⁻⁶ cm/s | Papp at 1 μM ([2]; Caco-2): 0.1 ×10⁻⁶ cm/s | efflux ratio at 1 µM [2, 13]: 32 | IC50 (human β2-AR [1]; [11]): 66 nM | IC50 (human β2-AR [1]; [12]): 78 nM | pIC50 (human β2-AR [1]; [8]): 7.11
Compound: CC(C)NC[C@@H](O)COc1cccc2[nH]cc(CC(=O)N(C)C)c12 [CD3-T3]

Activation of the β2-AR by sugars (calcium response) (human β2-AR [1]): activated
Compound: O=C(CO)[C@@H](O)[C@H](O)[C@H](O)CO [fructose]

Inhibition of the epinephrine response (human β2-AR [1]; 200 μM antagonist, 20 nM epinephrine): Inhibition | Inhibition of sugar responses (human β2-AR [1]; 200 μM antagonist, 70 mM sugar): inhibited; also recorded: Inhibition | Block of the calcium response to epinephrine (human β2-AR [1]; Flp-In-293 β2-AR/Gα16 cells, Fluo4 fluorescence (FIG. 2a)): blocked
Compound: CC(C)(C)NCC(O)COc1cccc2c1CC(O)C(O)C2 (stereo not drawn) [nadolol, reference compound]

Activation of the β2-AR by sugars (calcium response) (human β2-AR [1]): activated
Compound: OC[C@H]1O[C@H](O[C@H]2O[C@H](CO)[C@@H](O)[C@H](O)[C@H]2O)[C@H](O)[C@@H](O)[C@@H]1O [trehalose]
